Earlier results on two molecules are cited in patent publication US8828415B2, “Microcapsules with acetylene carbamide-polyurea polymers and formulations thereof for controlled release” (priority 2006, dated 2014).

For series [1] the following is noted: for cancer (Ames test): MSDS of Sigma-Aldrich and CYTEC. Background: The Ames test uses bacterial strains that need an amino acid and regain growth without it when mutated back.
Series [2] concerns guinea pigs.
For series [3], the system named is mice. The conditions noted are these: for 4 h.
Series [4] concerns humans.

Molecules are shown by their SMILES.

For `CC(C)(N=C=O)c1cccc(C(C)(C)N=C=O)c1` [TMXDI, alpha-, alpha-, alpha-, alpha-tetramethyl xylylene diisocyanate], the “cancer (Ames test)” value in series [1] is given as “not carcinogenic”. In series [2], the “pulmonary sensitization in guinea pigs” value was “no”. Also, the “acute inhalation toxicity (LC50)” value in series [3] was 27 ppm for 4 h -. In series [4], the “affects respiratory system in humans at long term (3 y)” value is on record as “no”.
Turning to `Cc1ccc(N=C=O)cc1N=C=O` [TDI, 2,4-toluenediisocyanate], the “cancer (Ames test)” value in series [1] was “carcinogenic (Ames test)”. Further, in series [1] (MSDS), the “cancer: CMR category” value is given as “CMR Cat. Carcinogen 3” and the “cancer: IARC classification” value is “IARC carrcinogen 2B”. Moreover, in series [2], the “pulmonary sensitization in guinea pigs” value is “Yes”. The “acute inhalation toxicity (LC50)” value in series [3] is given as 10 ppm for 4 h - mice. Further, the “affects respiratory system in humans at long term (3 y)” value in series [4] is reported as “Yes”.
